In test [1] the test system is T1, General amino-acid permease GAP1 (Saccharomyces cerevisiae), P19145 [L387C].
T1 sequence (whole entry): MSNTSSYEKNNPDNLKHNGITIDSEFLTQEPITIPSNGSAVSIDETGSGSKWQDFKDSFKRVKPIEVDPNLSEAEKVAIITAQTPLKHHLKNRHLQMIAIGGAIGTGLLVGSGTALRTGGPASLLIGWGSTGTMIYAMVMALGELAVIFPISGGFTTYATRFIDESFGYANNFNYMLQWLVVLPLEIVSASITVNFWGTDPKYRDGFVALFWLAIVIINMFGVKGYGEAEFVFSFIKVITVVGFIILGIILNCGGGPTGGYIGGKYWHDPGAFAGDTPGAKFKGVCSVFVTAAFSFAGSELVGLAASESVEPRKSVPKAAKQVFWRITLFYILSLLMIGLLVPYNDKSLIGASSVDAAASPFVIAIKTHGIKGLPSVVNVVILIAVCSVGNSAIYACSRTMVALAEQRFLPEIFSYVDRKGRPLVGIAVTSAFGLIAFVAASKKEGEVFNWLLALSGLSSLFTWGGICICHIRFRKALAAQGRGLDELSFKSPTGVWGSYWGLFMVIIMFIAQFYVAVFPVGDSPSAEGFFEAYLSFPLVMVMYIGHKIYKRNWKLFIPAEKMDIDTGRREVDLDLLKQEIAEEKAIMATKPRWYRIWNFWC
Nature of the test: Activation of yeast Gap1 L387C mutant-mediated amino acid uptake at 10 mM.

In test [2] the test system is General amino-acid permease GAP1 (Saccharomyces cerevisiae), P19145 [Y395C]. Nature of the test: Inhibition of yeast Gap1 Y395C mutant-mediated trehalose activation at 10 mM.
Sequence of General amino-acid permease GAP1 (Saccharomyces cerevisiae), P19145 [Y395C] (P19145 whole entry Y395C): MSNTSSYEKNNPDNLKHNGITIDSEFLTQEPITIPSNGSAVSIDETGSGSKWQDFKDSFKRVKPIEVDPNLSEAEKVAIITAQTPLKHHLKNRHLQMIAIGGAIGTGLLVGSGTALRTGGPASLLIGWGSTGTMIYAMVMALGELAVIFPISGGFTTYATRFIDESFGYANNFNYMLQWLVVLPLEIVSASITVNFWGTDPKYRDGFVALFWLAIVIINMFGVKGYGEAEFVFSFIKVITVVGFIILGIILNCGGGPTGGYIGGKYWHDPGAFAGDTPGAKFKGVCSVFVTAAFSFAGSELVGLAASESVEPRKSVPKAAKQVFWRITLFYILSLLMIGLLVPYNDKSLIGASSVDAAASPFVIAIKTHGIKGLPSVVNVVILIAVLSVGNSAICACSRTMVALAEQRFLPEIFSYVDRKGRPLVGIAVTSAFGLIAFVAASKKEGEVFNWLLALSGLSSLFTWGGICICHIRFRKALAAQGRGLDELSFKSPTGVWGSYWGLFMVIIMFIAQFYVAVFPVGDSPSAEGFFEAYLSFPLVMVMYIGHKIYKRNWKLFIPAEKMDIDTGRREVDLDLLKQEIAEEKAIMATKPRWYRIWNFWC
For test [3], the system named is T2, General amino-acid permease GAP1 (Saccharomyces cerevisiae), P19145 [G390C].
T2 sequence (whole entry): T1 sequence (whole entry) with C387L, G390C
Nature of the test: Induction of yeast Gap1 G390C mutant-mediated trehalose activation at 2 mM in presence of 10 mM MTSEA treated before compound addition.

Test [4] deals with T3, General amino-acid permease GAP1 (Saccharomyces cerevisiae), P19145 [M401C].
T3 sequence (whole entry): T1 sequence (whole entry) with C387L, M401C
Description: Induction of yeast Gap1 M401C mutant-mediated trehalose activation at 2 mM in presence of 10 mM MTSEA treated before compound addition.

Test [5] relates to T4, General amino-acid permease GAP1 (Saccharomyces cerevisiae), P19145 [C397C].
T4 sequence (whole entry): T1 sequence (whole entry) with C387L
Nature of the test: Induction of yeast Gap1 C397C mutant-mediated amino acid uptake at 2 mM in presence of 10 mM MTSEA treated before compound addition.

The structures appear in SMILES notation. Changes are numbered by the printed parent chain. Calls of active or inactive are those of the source. No cut-off for these calls is given here.

With `NC(=O)NCCC[C@H](N)C(=O)O`, in test [1], the result was inactive. Also, the inhibition result in test [2], in test [3] and in test [4] was “Active” in each case. In addition, the outcome in test [5] was Active.
